From patent US12351587B2, “Bicyclic compound as RIP-1 kinase inhibitor and application thereof” (MEDSHINE DISCOVERY INC., priority 2019, dated 2025) come the findings set out here.

Data set [1] in a line: In vitro Caco-2 cell permeability assay. It is filed as in vitro ADME. The conditions noted are these: human, pH 7.4, Caco-2, 2 μM. On the procedure:
MEM (minimum essential medium) supplemented with 2 mM L-glutamine, 10% Fetal Bovine Serum (FBS), 100 U/mL penicillin-G and 100 μg/mL streptomycin was used for cell culture. The conditions for cell culture were 37±1° C., 5% CO2 and saturated humidity. When cells were grown to 80-90% confluency, trypsin (0.05%, w/v)/EDTA (0.02% w/v) digestion solution was added to digest the cells for seeding. The cells were seeded in BD Falcon's Transwell-96-well plate at a seeding density of 1×10^5 cells/cm^2. The cells were cultured in a carbon dioxide incubator for 22 days and then used for transport assay. […]
In this assay, liquid chromatography tandem mass spectrometry (LC/MS/MS) was used to semi-quantitatively analyze the peak area ratio of the assay compound and the control substances fenoterol, propranolol and digoxin to the internal standard in the starting solution, the receiving solution, and the supernatant of the dosing well. […]
Apparent permeability coefficient (Papp, cm/s), efflux rate and recovery rate were calculated using the following formulae.
The apparent permeability coefficient (Papp, cm/s) was calculated using the following formula: Papp=(dCr/dt)×Vr/(A×C0) […]
The efflux rate was calculated using the following formula: Efflux rate=Papp(BA)/Papp(AB) The recovery rate was calculated using the following formula: % recovery rate=100×[(Vr×Cr)+(Vd×Cd)]/(Vd×C0) […]

Data set [2] is described as follows: Plasma protein binding rate (PPB), rat plasma. The format is in vitro ADME, SD rats. The conditions noted are these: 2 μM, dialysis 4 hours 37° C. On the procedure: (§1) 796 μL of bank plasma from humans, SD rats and CD-1 mice (plasma purchased from BioreclamationIVT) were weighed, and the assay compound working solution or warfarin working solution was added so that the final concentration of the assay compound and warfarin in the plasma sample was 2 μM. The samples were mixed thoroughly. The final concentration of DMSO in the organic phase was 0.5%, 50 μL of plasma samples of the assay compound and warfarin were pipetted to a sample receiving plate, and the corresponding volume of the corresponding blank plasma or buffer was added immediately, so that the final volume in each sample well was 100 μL, wherein the volume ratio of plasma:dialysis buffer was 1:1. Stop solution was then added to these samples. These samples were used as T0 samples for determination of recovery and stability. The plasma samples of the assay compound and warfarin were added to the dosing end of each dialysis well, and blank dialysis buffer was added to the corresponding receiving end of the dialysis well. […] All samples were subjected to protein precipitation, and then analyzed by LC/MS/MS. Unbound rate (% Unbound), bound rate (% Bound), and recovery rate (% Recovery) of the compound were calculated using the following formulae: % Unbound=100*FC/TC, % Bond=100−% Unbound, and % Recovery=100*[…]/T0, […]

Data set [3] in a line: Plasma protein binding rate (PPB), mouse plasma. The format is in vitro ADME, CD-1 mice. To be noted: 2 μM, dialysis 4 hours 37° C. On the procedure:
as §1

For data set [4], the system named is All other kinases (411 of 413 kinases). Put plainly: Kinase selectivity assay (Eurofins, 33P radiolabeled kinase activity): all other kinases. The format is biochemical. The conditions noted are these: WX009 1 μM, ATP 10 μM. On the procedure:
The purpose of this assay was to detect the in vitro inhibitory activity of WX009 on a variety of kinases. The kinases used in this assay included 413 kinases, and the activity detection method was provided by Eurofins Pharma Discovery Service A method of detecting ^33P radiolabeled kinase activity was used for the assay. The concentration of WX009 was 1 μM, and the concentration of ATP was 10 μM.

On to `CN1C(=S)[C@@H](NC(=O)c2ncn(Cc3ccccc3)n2)COc2cccnc21` [WX009], for which the Papp at 120 min, 2 μM in data set [1] (120 minutes, pH 7.40, read-out: Apparent permeability coefficient) amounted to 18.4 ×10⁻⁶ cm/s. In addition, the efflux ratio at 120 min, 2 μM in data set [1] (Papp(BA)/Papp(AB), read-out: Efflux rate) is 0.75. The PPB_Unbound in data set [2] came to 29.7%; in data set [3], 7.0%. The same molecule came in with an Inhibition rate in data set [4] of less than 50%.
